Columns and labels:
[1] = Apparent permeability across basolateral to apical side in human Caco2 cells by UPLC analysis; type: ADME, cell-based; settings: Caco-2
[2] = Oral bioavailability in Sprague-Dawley rat at 4 mg/kg; type: ADME, organism-based; settings: in vivo
[3] = Apparent permeability across apical to basolateral side in human Caco2 cells by UPLC analysis; type: ADME, cell-based; settings: Caco-2
[4] = Half life in human hepatocytes; type: ADME, cell-based, Liver, Hepatocyte

CN(C)CCN1CCN(C(=O)c2cc(C(C)(C)C)sc2NC(=O)Nc2cccc(Cl)c2Cl)CCC1=O
Papp B→A [1]: 5.3 ×10⁻⁶ cm/s
bioavailability [2]: 33%
Papp A→B [3]: 0.39 ×10⁻⁶ cm/s
half-life [4]: 340 min
